Here are results for 8 compounds from patent publication US20090099029A1, “Methods and substrates for conducting assays” (Invitrogen Corporation, priority 2005, published 2009).

Like-named read-outs stand apart in the source and are kept apart here.

What all share (test): Further analysis of a plurality of inhibitors and a plurality of kinases (Table 5 inhibition results)
Common to all, as to assay type: biochemical
What all share (set-up): scale not given here

In assay [1] the target is kinases of Table 5 (Homo sapiens, UniProt Q8IVW4). The following applies: inhibitor 100 uM; for Inhibition level: kinase CDKL3; for Inhibition Results (Level): kinase CDKL3 (Part II, plate F12, Domain 0). The source says:
(§1) The wash solution is then discarded.

Assay [2] addresses kinases of Table 5 (Homo sapiens, UniProt P07948).
Source text: as §1

Assay [3] deals with kinases of Table 5 (Homo sapiens, UniProt Q00536). The following applies: kinase PCTK1 (Part I, plate A3, Domain 0); inhibitor 100 uM.
Source text: as §1

The target in assay [4] is kinases of Table 5 (Homo sapiens, UniProt P37173). The following applies: kinase TGFBR2 (Part I, plate C7, Domain 1).
Source text: as §1

For assay [5], the target named is kinases of Table 5 (Homo sapiens, UniProt P06239). The following applies: kinase LCK (Part I, plate A6, Domain 0).
Source text: as §1

Assay [6] concerns the target T1, kinases of Table 5 (Homo sapiens, UniProt Q96KB5).
T1 sequence (Q96KB5 1-322): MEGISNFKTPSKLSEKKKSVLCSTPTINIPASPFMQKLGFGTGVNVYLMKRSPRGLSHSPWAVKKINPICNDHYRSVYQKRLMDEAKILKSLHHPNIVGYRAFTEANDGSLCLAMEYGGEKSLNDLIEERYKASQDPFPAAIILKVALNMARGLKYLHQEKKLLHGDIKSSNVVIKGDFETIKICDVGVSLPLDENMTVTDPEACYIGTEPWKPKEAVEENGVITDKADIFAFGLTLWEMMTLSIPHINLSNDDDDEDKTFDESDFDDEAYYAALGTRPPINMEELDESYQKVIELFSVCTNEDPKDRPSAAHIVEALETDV
The following applies: kinase TOPK (Part I, plate G7, Domain 1).
Source text: as §1

Assay [7] concerns the target T2, kinases of Table 5 (Homo sapiens, UniProt P51813).
T2 sequence (P51813 1-675): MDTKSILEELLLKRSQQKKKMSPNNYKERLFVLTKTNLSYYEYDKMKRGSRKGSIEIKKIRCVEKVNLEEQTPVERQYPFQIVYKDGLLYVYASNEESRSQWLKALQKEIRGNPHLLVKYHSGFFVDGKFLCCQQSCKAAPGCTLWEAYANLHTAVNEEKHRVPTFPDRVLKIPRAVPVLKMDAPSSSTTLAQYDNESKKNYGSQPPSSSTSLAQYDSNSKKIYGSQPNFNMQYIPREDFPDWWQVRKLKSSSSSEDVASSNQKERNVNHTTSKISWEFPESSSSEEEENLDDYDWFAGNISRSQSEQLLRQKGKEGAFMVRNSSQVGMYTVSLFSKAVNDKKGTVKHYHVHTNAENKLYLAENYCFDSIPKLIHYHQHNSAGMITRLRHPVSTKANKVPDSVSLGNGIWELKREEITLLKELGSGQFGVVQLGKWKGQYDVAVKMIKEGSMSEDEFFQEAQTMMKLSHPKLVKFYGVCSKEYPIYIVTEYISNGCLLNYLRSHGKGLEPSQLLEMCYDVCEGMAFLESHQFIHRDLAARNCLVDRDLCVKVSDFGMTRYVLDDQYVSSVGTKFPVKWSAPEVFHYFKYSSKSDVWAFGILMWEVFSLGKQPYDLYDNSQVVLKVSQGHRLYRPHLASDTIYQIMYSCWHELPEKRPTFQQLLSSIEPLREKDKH
The following applies: inhibitor 100 uM; for Inhibition level: kinase BMX; for Inhibition Results (Level): kinase BMX (Part II, plate B12, Domain 1).
Source text: as §1

In assay [8] the target is T3, kinases of Table 5 (Homo sapiens, UniProt Q8IV63).
T3 sequence (Q8IV63 1-474): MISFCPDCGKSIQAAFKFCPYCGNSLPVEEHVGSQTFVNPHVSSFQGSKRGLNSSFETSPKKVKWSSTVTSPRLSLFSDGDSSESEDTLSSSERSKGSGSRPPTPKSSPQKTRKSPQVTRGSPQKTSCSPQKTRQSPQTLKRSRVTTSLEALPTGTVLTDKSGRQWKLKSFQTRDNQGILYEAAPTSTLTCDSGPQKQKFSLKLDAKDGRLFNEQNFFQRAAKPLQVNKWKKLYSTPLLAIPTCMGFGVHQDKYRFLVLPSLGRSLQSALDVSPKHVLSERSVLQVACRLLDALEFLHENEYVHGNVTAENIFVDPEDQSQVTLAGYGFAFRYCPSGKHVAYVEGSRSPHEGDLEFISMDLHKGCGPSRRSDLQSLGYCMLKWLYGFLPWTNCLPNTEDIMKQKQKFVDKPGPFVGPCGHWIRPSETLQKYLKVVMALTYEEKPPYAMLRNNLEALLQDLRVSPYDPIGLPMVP
The following applies: kinase LOC51231 (Part I, plate C12, Domain 1).
Source text: as §1

Assay [9] has as its target kinases of Table 5 (Homo sapiens, UniProt Q7KZI7). The following applies: kinase MARK2 (Part I, plate C4, Domain 1); inhibitor 100 uM.
Source text: as §1

Assay [10] addresses T4, kinases of Table 5 (Homo sapiens, UniProt O43318).
T4 sequence (O43318 1-606): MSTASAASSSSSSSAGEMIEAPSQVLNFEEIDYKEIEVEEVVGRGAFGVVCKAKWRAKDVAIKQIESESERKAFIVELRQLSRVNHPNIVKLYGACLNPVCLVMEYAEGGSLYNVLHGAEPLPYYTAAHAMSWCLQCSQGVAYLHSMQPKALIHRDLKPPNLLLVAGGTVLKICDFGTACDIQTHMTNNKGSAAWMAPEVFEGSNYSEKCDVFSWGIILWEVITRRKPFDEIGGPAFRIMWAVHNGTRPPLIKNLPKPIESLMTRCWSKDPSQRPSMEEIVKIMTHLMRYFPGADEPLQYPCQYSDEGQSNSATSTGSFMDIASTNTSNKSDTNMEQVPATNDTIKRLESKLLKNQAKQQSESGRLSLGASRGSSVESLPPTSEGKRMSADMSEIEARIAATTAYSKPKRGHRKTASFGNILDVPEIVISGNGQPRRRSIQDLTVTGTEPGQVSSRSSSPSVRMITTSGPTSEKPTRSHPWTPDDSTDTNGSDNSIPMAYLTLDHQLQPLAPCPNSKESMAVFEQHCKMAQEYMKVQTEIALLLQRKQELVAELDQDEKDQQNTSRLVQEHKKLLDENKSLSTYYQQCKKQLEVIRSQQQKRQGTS
The following applies: kinase MAP3K7 (Part I, plate G9, Domain 0).
Source text: as §1

Setting [11] is: kinase LYN (Part I, plate A5, Domain 0), inhibitor 100 uM.

Sequence of kinases of Table 5 (Homo sapiens, UniProt Q00536) (Q00536 whole entry): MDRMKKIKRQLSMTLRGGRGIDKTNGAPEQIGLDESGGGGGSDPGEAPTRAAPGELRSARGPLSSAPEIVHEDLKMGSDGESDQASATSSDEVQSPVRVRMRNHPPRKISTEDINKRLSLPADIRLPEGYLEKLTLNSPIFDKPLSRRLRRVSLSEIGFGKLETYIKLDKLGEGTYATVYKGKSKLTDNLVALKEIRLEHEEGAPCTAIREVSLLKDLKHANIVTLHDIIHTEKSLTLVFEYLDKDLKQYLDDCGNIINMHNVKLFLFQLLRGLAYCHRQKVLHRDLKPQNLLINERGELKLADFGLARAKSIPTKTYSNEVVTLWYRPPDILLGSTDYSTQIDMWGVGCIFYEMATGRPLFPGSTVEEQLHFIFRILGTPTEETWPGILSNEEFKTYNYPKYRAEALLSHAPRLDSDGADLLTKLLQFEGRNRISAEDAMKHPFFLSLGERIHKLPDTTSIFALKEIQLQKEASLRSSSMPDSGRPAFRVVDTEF
Sequence of kinases of Table 5 (Homo sapiens, UniProt Q8IVW4) (Q8IVW4 whole entry): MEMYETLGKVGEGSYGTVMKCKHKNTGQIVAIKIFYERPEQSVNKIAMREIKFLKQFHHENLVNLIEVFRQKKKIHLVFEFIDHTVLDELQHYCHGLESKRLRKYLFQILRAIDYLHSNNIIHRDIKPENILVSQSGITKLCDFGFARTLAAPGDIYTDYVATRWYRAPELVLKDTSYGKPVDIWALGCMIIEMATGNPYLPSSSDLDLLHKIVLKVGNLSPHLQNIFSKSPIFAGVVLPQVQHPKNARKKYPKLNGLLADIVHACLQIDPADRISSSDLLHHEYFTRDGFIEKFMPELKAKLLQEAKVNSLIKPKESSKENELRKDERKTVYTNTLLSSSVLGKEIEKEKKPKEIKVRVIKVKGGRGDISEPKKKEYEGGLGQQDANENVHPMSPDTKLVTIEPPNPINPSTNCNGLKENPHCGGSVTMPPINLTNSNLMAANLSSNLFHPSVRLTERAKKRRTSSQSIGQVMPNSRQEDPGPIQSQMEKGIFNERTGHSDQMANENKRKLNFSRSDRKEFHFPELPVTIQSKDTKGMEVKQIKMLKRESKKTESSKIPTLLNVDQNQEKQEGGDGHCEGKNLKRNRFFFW
Sequence of kinases of Table 5 (Homo sapiens, UniProt P06239) (P06239 whole entry): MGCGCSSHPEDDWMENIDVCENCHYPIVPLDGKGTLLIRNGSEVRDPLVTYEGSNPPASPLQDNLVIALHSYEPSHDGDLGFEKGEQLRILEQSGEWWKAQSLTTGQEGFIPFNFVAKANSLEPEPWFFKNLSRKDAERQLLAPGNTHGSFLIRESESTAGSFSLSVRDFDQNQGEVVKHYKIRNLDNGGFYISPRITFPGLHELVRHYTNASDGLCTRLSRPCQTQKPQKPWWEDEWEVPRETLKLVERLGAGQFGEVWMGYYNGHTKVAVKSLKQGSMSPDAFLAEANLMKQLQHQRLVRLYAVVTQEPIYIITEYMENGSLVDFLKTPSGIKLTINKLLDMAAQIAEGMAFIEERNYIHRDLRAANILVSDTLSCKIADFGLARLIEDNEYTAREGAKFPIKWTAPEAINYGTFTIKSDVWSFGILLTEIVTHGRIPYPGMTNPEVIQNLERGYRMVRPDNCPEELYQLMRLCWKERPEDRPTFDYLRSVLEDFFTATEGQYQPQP
Sequence of kinases of Table 5 (Homo sapiens, UniProt Q7KZI7) (Q7KZI7 whole entry): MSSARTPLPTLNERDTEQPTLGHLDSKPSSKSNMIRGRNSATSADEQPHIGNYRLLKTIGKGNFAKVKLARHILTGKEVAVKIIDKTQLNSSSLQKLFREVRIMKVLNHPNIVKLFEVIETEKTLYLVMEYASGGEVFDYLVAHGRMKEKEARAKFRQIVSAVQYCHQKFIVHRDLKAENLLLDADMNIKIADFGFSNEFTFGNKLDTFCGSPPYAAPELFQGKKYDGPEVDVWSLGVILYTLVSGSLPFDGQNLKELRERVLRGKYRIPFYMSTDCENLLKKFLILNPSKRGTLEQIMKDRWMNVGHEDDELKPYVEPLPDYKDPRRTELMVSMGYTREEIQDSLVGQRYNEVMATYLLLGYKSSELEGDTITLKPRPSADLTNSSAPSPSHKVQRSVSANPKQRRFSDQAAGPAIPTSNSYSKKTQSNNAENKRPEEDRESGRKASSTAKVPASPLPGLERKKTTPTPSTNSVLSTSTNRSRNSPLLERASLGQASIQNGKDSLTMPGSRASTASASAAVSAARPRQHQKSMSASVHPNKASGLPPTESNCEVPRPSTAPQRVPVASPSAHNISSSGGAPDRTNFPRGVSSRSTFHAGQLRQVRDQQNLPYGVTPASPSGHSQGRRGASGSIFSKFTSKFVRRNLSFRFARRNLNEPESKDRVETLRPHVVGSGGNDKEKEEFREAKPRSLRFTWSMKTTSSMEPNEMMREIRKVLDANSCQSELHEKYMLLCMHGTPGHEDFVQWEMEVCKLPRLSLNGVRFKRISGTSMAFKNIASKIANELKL
Sequence of kinases of Table 5 (Homo sapiens, UniProt P07948) (P07948 whole entry): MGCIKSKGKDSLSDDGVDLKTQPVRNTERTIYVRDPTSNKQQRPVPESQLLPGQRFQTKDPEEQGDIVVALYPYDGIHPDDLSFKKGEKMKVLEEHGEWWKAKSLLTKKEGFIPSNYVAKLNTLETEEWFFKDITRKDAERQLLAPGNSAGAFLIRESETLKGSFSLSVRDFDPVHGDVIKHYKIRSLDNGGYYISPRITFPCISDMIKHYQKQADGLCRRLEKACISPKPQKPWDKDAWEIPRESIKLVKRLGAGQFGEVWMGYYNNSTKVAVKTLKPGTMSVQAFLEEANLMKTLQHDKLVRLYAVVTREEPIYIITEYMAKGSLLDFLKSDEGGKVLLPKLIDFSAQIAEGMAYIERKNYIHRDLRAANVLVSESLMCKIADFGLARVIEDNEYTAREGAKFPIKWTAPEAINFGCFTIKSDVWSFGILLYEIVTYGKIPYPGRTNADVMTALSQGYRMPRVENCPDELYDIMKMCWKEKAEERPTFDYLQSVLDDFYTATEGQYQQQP
Sequence of kinases of Table 5 (Homo sapiens, UniProt P37173) (P37173 23-567): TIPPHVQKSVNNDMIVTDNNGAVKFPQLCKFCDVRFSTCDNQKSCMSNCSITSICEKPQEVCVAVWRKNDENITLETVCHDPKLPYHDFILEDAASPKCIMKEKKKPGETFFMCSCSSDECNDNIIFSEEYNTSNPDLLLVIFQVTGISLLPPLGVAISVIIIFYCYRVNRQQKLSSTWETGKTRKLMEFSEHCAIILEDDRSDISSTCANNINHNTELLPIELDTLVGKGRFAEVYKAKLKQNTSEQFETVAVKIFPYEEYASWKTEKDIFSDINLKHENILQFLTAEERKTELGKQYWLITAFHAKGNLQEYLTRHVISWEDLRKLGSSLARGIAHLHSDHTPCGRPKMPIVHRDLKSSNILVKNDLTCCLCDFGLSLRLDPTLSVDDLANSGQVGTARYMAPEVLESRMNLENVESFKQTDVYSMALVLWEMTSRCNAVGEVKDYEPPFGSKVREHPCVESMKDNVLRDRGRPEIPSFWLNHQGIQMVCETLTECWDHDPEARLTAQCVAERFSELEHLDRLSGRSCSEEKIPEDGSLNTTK

Regarding `N#C/C(=C/c1ccc(O)c(O)c1)C(=O)NCc1ccccc1` [AG 490], the Inhibition level turned out to be 2 at kinases of Table 5 [1] and 0 at kinases of Table 5 [7]. In addition, the “Inhibition Results (Level)” value on kinases of Table 5 [2] (setting [11]) is 2; at kinases of Table 5 [3] it was 0; at kinases of Table 5 [4] (inhibitor 100 uM), 2; on kinases of Table 5 [5] (inhibitor 100 uM), 2; at kinases of Table 5 [6] (inhibitor 100 uM), 2; on kinases of Table 5 [8] (inhibitor 100 uM) it was 0. The results for the “Inhibition Results (Level)” value on kinases of Table 5 [9] and on kinases of Table 5 [10] (inhibitor 100 uM) were 2 and 0, respectively.
In the case of `COc1cc2ncnc(Nc3cccc(Cl)c3)c2cc1OC` [AG 1478], the Inhibition level on kinases of Table 5 [1] and on kinases of Table 5 [7] was 1 each time. Moreover, the “Inhibition Results (Level)” value was 2 at kinases of Table 5 [2] (setting [11]); 0 at kinases of Table 5 [3]; 2 at kinases of Table 5 [4] (inhibitor 100 uM); 2 at kinases of Table 5 [5] (inhibitor 100 uM); 1 on kinases of Table 5 [6] (inhibitor 100 uM); 0 on kinases of Table 5 [8] (inhibitor 100 uM). Besides, the “Inhibition Results (Level)” value on kinases of Table 5 [9] is 2; at kinases of Table 5 [10] (inhibitor 100 uM) it was 0.
Regarding `O=c1c(-c2ccc(O)cc2)coc2cc(O)cc(O)c12` [Genistein], the Inhibition level on kinases of Table 5 [1] and on kinases of Table 5 [7] was 0 in each case. Further, the “Inhibition Results (Level)” value on kinases of Table 5 [2] (setting [11]) is on record as 2; at kinases of Table 5 [2] (kinase LYN (Part I, plate A5, Domain 0), inhibitor <3.7 mM) it was 2; at kinases of Table 5 [3], 1; on kinases of Table 5 [4] (inhibitor 100 uM), 2; on kinases of Table 5 [4] (inhibitor <3.7 mM), 1; on kinases of Table 5 [5] (inhibitor 100 uM) it was 2. Besides, the “Inhibition Results (Level)” value was 0 at kinases of Table 5 [5] (inhibitor <3.7 mM); 2 on kinases of Table 5 [6] (inhibitor 100 uM); 0 at kinases of Table 5 [6] (inhibitor <3.7 mM); 2 at kinases of Table 5 [8] (inhibitor 100 uM); 0 at kinases of Table 5 [8] (inhibitor <3.7 mM); 2 on kinases of Table 5 [9]. Further, the “Inhibition Results (Level)” value on kinases of Table 5 [10] (inhibitor 100 uM) turned out to be 1; at kinases of Table 5 [10] (inhibitor <3.7 mM) it was 0.
In the case of `O=S(=O)(NCCNC/C=C/c1ccc(Br)cc1)c1cccc2cnccc12` [H-89], the “Inhibition Results (Level)” value turned out to be 1 at kinases of Table 5 [1]; 2 on kinases of Table 5 [2] (setting [11]); 2 at kinases of Table 5 [3]; 2 at kinases of Table 5 [4] (inhibitor 100 uM); 2 at kinases of Table 5 [5] (inhibitor 100 uM); 2 on kinases of Table 5 [6] (inhibitor 100 uM). In addition, the “Inhibition Results (Level)” value at kinases of Table 5 [7] came out at 1; at kinases of Table 5 [8] (inhibitor 100 uM), 2; on kinases of Table 5 [9] it was 2; at kinases of Table 5 [10] (inhibitor 100 uM) it was 2.
In the case of `CC(C)(C)n1nc(-c2ccc(Cl)cc2)c2c(N)ncnc21` [PP2], the Inhibition level at kinases of Table 5 [1] and at kinases of Table 5 [7] was 2 throughout. Further, the “Inhibition Results (Level)” value on kinases of Table 5 [2] (setting [11]) came out at 2; on kinases of Table 5 [3], 1; on kinases of Table 5 [4] (inhibitor 100 uM) it was 2; at kinases of Table 5 [6] (inhibitor 100 uM), 2; on kinases of Table 5 [8] (inhibitor 100 uM) it was 0; on kinases of Table 5 [9], 2. For the same compound, at kinases of Table 5 [10] (inhibitor 100 uM), the “Inhibition Results (Level)” value turned out to be 2.
Turning to `O=c1c(O)c(-c2ccc(O)c(O)c2)oc2cc(O)cc(O)c12` [Quercetin], the “Inhibition Results (Level)” value was 0 on kinases of Table 5 [1]; 2 on kinases of Table 5 [2] (setting [11]); 0 at kinases of Table 5 [3]; 0 at kinases of Table 5 [4] (inhibitor 100 uM); 0 on kinases of Table 5 [6] (inhibitor 100 uM); 0 at kinases of Table 5 [7]. Also, the “Inhibition Results (Level)” value on kinases of Table 5 [8] (inhibitor 100 uM) came to 0.
With `Cn1cc(C2=C(c3cn(CCCSC(=N)N)c4ccccc34)C(=O)NC2=O)c2ccccc21` [Ro-31-8220], the Inhibition level at kinases of Table 5 [1] and at kinases of Table 5 [7] was 2 each time. Moreover, the “Inhibition Results (Level)” value was found to be 0 at kinases of Table 5 [2] (kinase LYN (Part I, plate A5, Domain 0), inhibitor 90 uM); 2 at kinases of Table 5 [2] (setting [11]); 0 on kinases of Table 5 [3]; 2 on kinases of Table 5 [4] (inhibitor 90 uM); 2 at kinases of Table 5 [4] (inhibitor 100 uM); 0 at kinases of Table 5 [5] (inhibitor 90 uM). Also, the “Inhibition Results (Level)” value on kinases of Table 5 [5] (inhibitor 100 uM) is given as 2; at kinases of Table 5 [6] (inhibitor 90 uM), 2; on kinases of Table 5 [6] (inhibitor 100 uM), 0; at kinases of Table 5 [8] (inhibitor 90 uM), 0; on kinases of Table 5 [8] (inhibitor 100 uM) it was 2; at kinases of Table 5 [9], 2. Besides, the “Inhibition Results (Level)” value on kinases of Table 5 [10] (inhibitor 90 uM) and on kinases of Table 5 [10] (inhibitor 100 uM) was 2 in each case.
As for `CN[C@@H]1C[C@H]2O[C@@](C)([C@@H]1OC)n1c3ccccc3c3c4c(c5c6ccccc6n2c5c31)C(=O)NC4` [Staurosporine], the “Inhibition Results (Level)” value on kinases of Table 5 [2] is 0; on kinases of Table 5 [4] (inhibitor 21.5 uM) it was 2; at kinases of Table 5 [6] (inhibitor 21.5 uM), 2; on kinases of Table 5 [8] (inhibitor 21.5 uM), 0.
